Data reported in patent US12570709B2, “Self-assembling peptide amphiphiles displaying a transforming growth factor beta 1 (TGF-ß1) mimetic epitope” (Northwestern University, priority 2021, dated 2026).
Bridge positions count the residues as written; N and C are the ends. Ends that are not written are not given here. I, II: the chains in the order shown. * marks the point of attachment. Palmitoyl = CCCCCCCCCCCCCCCC(=O)*

What was measured:
[1] = tested on: Smad2 phosphorylation (intracellular TGF-β1 signaling) in human chondrocytes; assay: Western blot of phosphorylated Smad2 after 4 h treatment; format: cell-based; conditions: for p-Smad2 activation: 50 μM, 4 h
Method: (§1) For western blot of 4 h PA treatments, cells were seeded in 6-well plates at a density of 600,000 cells/well and cultured for 24 h. […] Cells were then treated with PA in solution for 4 h in vitro. For western blot of 3-day PA treatments, cells were seeded in 6-well plates at a density of 230,000 cells/well and cultured for 24 h. Cells were then treated with PA in solution for 3 days in vitro.
(§2) Protein was extracted from cells using Halt Protease and Phosphatase Inhibitor Cocktail (Thermo Scientific) and a BCA assay (Thermo Scientific) was performed to determine protein content of each sample. Cell protein was loaded into and separated using a 4-20% SDS-PAGE gel (Bio-Rad). It was then electrotransferred from the gel to a nitrocellulose membrane (Bio-Rad). The membranes were blocked with 10% milk solution (Bio-Rad) for 30 minutes followed by an overnight incubation with primary antibodies at 4° C. The following primary antibodies were used: rabbit anti-pSmad2 (1:1000, Cell Signaling), rabbit anti-Smad2 (1:1000, Cell Signaling), rabbit anti-Sox9 (1:500, Abcam), mouse anti-Aggrecan (1:500, ThermoFisher), rabbit anti-COMP/Cartilage oligomeric matrix protein (1:500, Abcam), mouse anti-Collagen II (1:500, ThermoFisher), and mouse anti-Actin (1:1000, Novus Bio). Membranes were then incubated with their corresponding secondary HRP-conjugated antibodies (1:1000, ThermoFisher). Protein signals were detected using Radiance Bioluminescent ECL substrate (Azure Biosystems). Densitometry analysis, standardized to total receptor content or actin as a control for protein loading, was performed using ImageJ software. For quantification, experimental triplicate samples were analyzed, and two different experiments were conducted.

[2] = Fluorescence anisotropy of TAMRA-labeled epitopes; format: physicochemical; conditions: 10 mol % co-assembly
Method: PA co-assemblies of diluent PA, TGF-β1 mimetic PA, and fluorescent dye-conjugated TGF-β1 mimetic PA were prepared in a 90:8:2 mol % ratio. The dye-conjugated PA was synthesized as previously described with a tetramethylrhodamine (TAMRA) molecule conjugated to the N-terminal amine of the TGF-β1 mimetic epitope. The PA solutions were prepared as previously described and diluted immediately before measurement to 100 μM PA, 100 μM CaCl2), and 30 mM NaCl. Fluorescence measurements were performed on an ISS PC1 photon counting steady-state fluorescence spectrometer equipped with a 300 W xenon arc lamp with power set to 18 A. Excitation slit widths of 1 mm (8 nm bandwidth) and emission slit widths of 0.5 mm (4 nm bandwidth) were used. Fluorescence anisotropy measurements were performed with λex=554 nm and λem=580 nm according to the equation:
[formula] Where F∥ is the intensity parallel to the excitation plane, F⊥ is the intensity perpendicular to the excitation plane, and g is the g-factor, which accounts for differences in emissions between the perpendicular and parallel gratings.^1 Measurements were taken in triplicate and averaged for final data analysis. Transverse-Relaxation Nuclear Magnetic Resonance Spectroscopy

[3] = Transverse-relaxation (T2) NMR spectroscopy of PA assemblies; format: physicochemical; conditions: TGF PA co-assembled at 10 mol % with diluent backbone PA
Method: NMR spectra were acquired at 600 MHz on a Brucker Neo system with QCI-F cryoprobe. NMR spectra for PAs were recorded at 25° C. using TFA-d, H2O/D2O in 9/1 ratio (D2O contains 0.05 wt. % 3-(trimethylsilyl) propionic-2,2,3,3-d4 acid, sodium salt) as solvents. Chemical shifts are reported in part per million (ppm). The […] was 15 μs and typical spectra required 32 scans.
The spin-spin relaxation rates were measured using the Carr-Purcell-Gill-Meiboom pulse sequence with a delay time of 0.2 ms in a variable loop. The peak intensity data was fit to and exponential in the form:
[formula] where τ is the length of the delay time, R2 is the spin-spin relaxation rate and b are the baseline.^2 Cell Culture

[4] = Cryo-TEM of PA nanostructures; format: physicochemical; conditions: 10 mol % co-assembly with diluent backbone PA
Method: 300-mesh copper grids with lacey carbon film (Electron Microscopy Sciences) were glow discharged for 30 seconds in a PELCO easiGlow system (Ted Pella, Inc.). PA solutions were prepared as previously described and then diluted to 1 mM in water before imaging. 7 μL of PA solution was placed onto grids, blotted, and plunge-frozen in liquid ethane using an FEI Vitrobot Mark IV (FEI), maintained at 95-100% humidity. While submerged in liquid nitrogen, vitrified samples were transferred to a Gatan 626 cryo-holder (Gatan) and imaged on a JEOL 1230 TEM operating at 100 kV accelerating voltage. Liquid nitrogen temperatures were maintained during imaging, and micrographs were captured with a Gatan 832 CCD camera.

[5] = tested on: C28/I2 human articular chondrocytes
Method: PA solutions (backbone PA, TGF PA, ln TGF PA, and peptide only) were prepared at 1 wt % as previously described, under sterile conditions. For cell treatments lasting <24 h, PA treatment solutions or native rhTGF-β1 protein (R&D Systems) were diluted in starvation medium, which comprised of DMEM High Glucose Medium (Gibco) supplemented with 0.5% fetal bovine serum (Denville Scientific), 100 U/mL penicillin, and 100 μg/mL streptomycin (Gibco). For cell treatments lasting 24 h or more, PA treatment solutions or native rhTGF-β1 protein (R&D Systems) were diluted in complete growth medium. PA solutions were prepared at a range of concentrations, 1, 10, 50, and 100 μM, where the concentration refers to the concentration of the epitope PA.
For cell viability assays, cells were seeded in 48-well plates at a density of approximately 15,400 cells/well and cultured for 24 h. Cells were then treated with PA in solution for 24 h or 3 days in vitro.
For 2D viability assays, cells were cultured and treated with PA solutions in vitro as previously described. After 24 h or 3 days of culture, cells were washed with HBSS (Gibco), and media was exchanged with HBSS containing 2 μM Calcein AM (Invitrogen) and 100 ng/mL propidium iodide (Sigma-Aldrich) for 30 minutes at 37° C. Cells were washed with HBSS and imaged.

[6] = tested on: collagen II, COMP, aggrecan and Sox9 in human chondrocytes; assay: Western blot of ECM proteins after three days treatment; format: cell-based; conditions: 10 μM, three days in vitro
Method: as §1, §2

[7] = tested on: collagen II, aggrecan and F-actin in human chondrocytes; assay: Immunocytochemistry staining and fluorescence intensity analysis after three days; format: cell-based; conditions: three days in vitro
Method: For immunocytochemistry (ICC), 12-mm glass coverslips were coated with sterile filtered 0.01 mg/mL poly-D-lysine (Sigma-Aldrich) solution and incubated overnight at 37° C. The coverslips were washed three times with sterile water and air-dried for at least 30 minutes. Cells were seeded on coverslips at a density of approximately 3,000 cells/coverslip and cultured for 24 h. Cells were then treated with PA in solution for 3 days in vitro. Following treatment, cells were fixed in 4% paraformaldehyde for 15 minutes at room temperature.
Fixed samples were permeabilized and blocked in a solution of 0.1% (v/v) Triton X-100 and 1% normal horse serum (Invitrogen) for 2 hours at room temperature. Samples were incubated with primary antibodies overnight at 4° C. The following primary antibodies were used: rabbit anti-Sox9 (1:500, Abcam), mouse anti-Aggrecan (1:500, ThermoFisher), mouse anti-Collagen II (1:500, ThermoFisher), and mouse anti-Nuclei (1:500, Sigma-Aldrich). The next day, samples were incubated with AlexaFluor 488 secondary antibody, AlexaFluor 555 secondary antibody, Phalloidin AlexaFluor 488, and/or Phalloidin AlexaFluor 633 (1:1000, Invitrogen) for 2-3 h at room temperature. For 2D cell culture, samples were then incubated with DAPI (1:1000, Invitrogen) for 10 minutes at room temperature. If not already on a glass coverslip, samples were mounted with Immu-Mount (Thermo Scientific) and imaged on a Nikon A1R Spectral microscope. Image analysis was performed using ImageJ software.

Substance: TGF PA-a: backbone PA-a (SEQ ID NO: 7) conjugated to cyclic TGF-β1 mimetic peptide (SEQ ID NO: 1) by a linker; co-assembled with diluent Backbone PA-a (chain Palmitoyl-AAEEK-OH; peptide CESPLKRQC; disulfide II:1-II:9; not fully specified (some residues); also: co-assembled with diluent backbone PA-a)
- p-Smad2 activation ([1]; 10 mol % co-assemblies): upregulated p-Smad2 significantly more than all other PA treatments
- p-Smad2 activation ([1]; 10 mol % co-assembly): strong p-Smad2 activation
- activation of p-Smad2 with addition of pan-TGF-β-neutralizing antibody 1D11 ([1]; with vs without 1D11): effectively neutralized
- significance of the neutralizing effect of 1D11 on p-Smad2 activation ([1]; with vs without 1D11): statistically significant
- fluorescence anisotropy (epitope rotational diffusion), compared to TGF PA-b [2]: significantly lower anisotropy values
- relaxation rate for the alkyl tail protons, compared with TGF PA-b assemblies [3]: nearly five times higher
- width of ribbon-like nanostructures [4]: 50-60 nm
- biocompatibility compared with corresponding Backbone PA-b systems [5]: higher biocompatibility
- ECM synthesis (collagen II, COMP, aggrecan, Sox9) [6]: upregulated ECM synthesis significantly more than all other PA treatments
- levels of collagen II compared with native rhTGF-β1 protein [6]: significantly higher levels of collagen II
- aggrecan synthesis ([7]; 10 μM, ICC): significantly increased aggrecan synthesis at similar levels
- collagen II production compared with native rhTGF-β1 ([7]; 10 μM, ICC): significantly more collagen II production than native rhTGF-β1
- chondrocyte phenotype (F-actin staining) [7]: maintained healthy chondrocyte phenotypes and prevented hypertrophy
